The text below walks through data of patent publication US20260274829A1, “NEW E3 UBIQUITIN LIGASE LIGAND, PROTEIN DEGRADATION AGENT AND USE THEREOF” (GLUETACS THERAPEUTICS (SHANGHAI) CO., LTD., priority 2023, published 2026).

As a reminder, the IC50 is the concentration needed to halve the response being measured.

T1 sequence (Q96SW2 whole entry): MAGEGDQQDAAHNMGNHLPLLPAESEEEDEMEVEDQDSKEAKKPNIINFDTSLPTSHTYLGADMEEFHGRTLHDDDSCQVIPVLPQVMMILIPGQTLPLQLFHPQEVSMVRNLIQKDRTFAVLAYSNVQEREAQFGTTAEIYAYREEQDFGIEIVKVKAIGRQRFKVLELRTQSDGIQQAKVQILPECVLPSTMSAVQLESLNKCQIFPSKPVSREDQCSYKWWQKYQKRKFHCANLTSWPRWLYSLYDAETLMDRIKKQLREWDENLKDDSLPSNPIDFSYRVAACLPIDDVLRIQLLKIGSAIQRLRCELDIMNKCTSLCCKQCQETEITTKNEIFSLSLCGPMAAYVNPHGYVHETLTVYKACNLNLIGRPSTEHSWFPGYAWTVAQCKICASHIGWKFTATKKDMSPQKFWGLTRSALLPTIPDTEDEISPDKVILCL

The assay has as its target T1, human Cereblon WT GST-tagged protein (Homo sapiens, UniProt Q96SW2).
T1 construct: purchased CISBIO 64BDCRBNPEH
Kind of assay: CRBN binding, HTRF CEREBLON BINDING kit. Conditions: CRBN binding, HTRF CEREBLON BINDING kit. The essentials: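 HTRF competition in which test compounds displace a Thalidomide-Re tracer from GST-tagged human Cereblon WT, detected with a GST Eu antibody. Incubation lasted 3 hours at room temperature, with emission read at 620 and 665 nm. Inhibition rate was derived from 665/620 ratios relative to blank and solvent control wells.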
`CCc1cc2c(cc1N1CCC(N3CCN(Cc4cccc(N5CCC(=O)NC5=O)c4)CC3)CC1)C(C)(C)c1[nH]c3cc(C#N)ccc3c1C2=O` [GT-07310, 8-(4-(4-(3-(2,4-dioxotetrahydropyrimidin-1(2H)-yl)benzyl)piperazin-1-yl)piperidin-1-yl)-9-ethyl-6,6-dimethyl-11-oxo-6,11-dihydro-5H-benzo[b]carbazole-3-carbonitrile] displayed an IC50 of 500 to 1000 nM. `CCc1cc2c(cc1N1CCC(N3CCN(Cc4ccc(N5CCC(=O)NC5=O)cn4)CC3)CC1)C(C)(C)c1[nH]c3cc(C#N)ccc3c1C2=O` [GT-07311, 8-(4-(4-((5-(2,4-dioxotetrahydropyrimidin-1(2H)-yl)pyridin-2-yl)methyl)piperazin-1-yl)piperidin-1-yl)-9-ethyl-6,6-dimethyl-11-oxo-6,11-dihydro-5H-benzo[b]carbazole-3-carbonitrile] yielded an IC50 of 500 to 1000 nM. To `CCc1cc2c(cc1N1CCC(N3CCN(Cc4cccc(NC5CCC(=O)NC5=O)c4)CC3)CC1)C(C)(C)c1[nH]c3cc(C#N)ccc3c1C2=O` (stereo not drawn) [GT-07313, 8-(4-(4-(3-((2,6-dioxopiperidin-3-yl)amino)benzyl)piperazin-1-yl)piperidin-1-yl)-9-ethyl-6,6-dimethyl-11-oxo-6,11-dihydro-5H-benzo[b]carbazole-3-carbonitrile] belongs 1000 to 1900 nM. Under `CCc1cc2c(cc1N1CCN(Cc3ccc(C4CCC(=O)NC4=O)cc3)CC1)C(C)(C)c1[nH]c3cc(C#N)ccc3c1C2=O` (stereo not drawn) [GT-07323, 8-(4-(4-(2,6-dioxopiperidin-3-yl)benzyl)piperazin-1-yl)-9-ethyl-6,6-dimethyl-11-oxo-6,11-dihydro-5H-benzo[b]carbazole-3-carbonitrile] stands 500 to 1000 nM; under `CCc1cc2c(cc1N1CCN(Cc3ccc(N4CCC(=O)NC4=O)cc3)CC1)C(C)(C)c1[nH]c3cc(C#N)ccc3c1C2=O` [GT-07324, 8-(4-(4-(2,4-dioxotetrahydropyrimidin-1(2H)-yl)benzyl)piperazin-1-yl)-9-ethyl-6,6-dimethyl-11-oxo-6,11-dihydro-5H-benzo[b]carbazole-3-carbonitrile], 1000 to 1900 nM; under `CCc1cc2c(cc1N1CCN(Cc3cccc(N4CCC(=O)NC4=O)c3)CC1)C(C)(C)c1[nH]c3cc(C#N)ccc3c1C2=O` [GT-07325, 8-(4-(3-(2,4-dioxotetrahydropyrimidin-1(2H)-yl)benzyl)piperazin-1-yl)-9-ethyl-6,6-dimethyl-11-oxo-6,11-dihydro-5H-benzo[b]carbazole-3-carbonitrile], 500 to 1000 nM. Under `CCc1cc2c(cc1N1CCN(Cc3ccc(N4CCC(=O)NC4=O)cn3)CC1)C(C)(C)c1[nH]c3cc(C#N)ccc3c1C2=O` [GT-07326, 8-(4-((5-(2,4-dioxotetrahydropyrimidin-1(2H)-yl)pyridin-2-yl)methyl)piperazin-1-yl)-9-ethyl-6,6-dimethyl-11-oxo-6,11-dihydro-5H-benzo[b]carbazole-3-carbonitrile] stands 1000 to 1900 nM. `CCc1cc2c(cc1N1CCN(Cc3cccc(NC4CCC(=O)NC4=O)c3)CC1)C(C)(C)c1[nH]c3cc(C#N)ccc3c1C2=O` (stereo not drawn) [GT-07328, 8-(4-(3-((2,6-dioxopiperidin-3-yl)amino)benzyl)piperazin-1-yl)-9-ethyl-6,6-dimethyl-11-oxo-6,11-dihydro-5H-benzo[b]carbazole-3-carbonitrile] showed a half-maximal inhibitory concentration (IC50) below 500 nM. With `COc1cc(N2CCN(Cc3ccc(N4CCC(=O)NC4=O)c(F)c3)CC2)ccc1Nc1ncc(Cl)c(Nc2ccccc2P(C)(C)=O)n1` [GT-07346, 1-(4-((4-(4-((5-chloro-4-((2-(dimethylphosphoryl)phenyl)amino)pyrimidin-2-yl)amino)-3-methoxyphenyl)piperazin-1-yl)methyl)-2-fluorophenyl)dihydropyrimidine-2,4(1H,3H)-dione], the IC50 fell in the range of 1000 to 1900 nM.
